Data: the supplement of paper PMC10307832

Columns and labels:
Experiment in all cases: relative viability (nuclei count vs DMSO), 5 days (fraction); higher = more cells survive
Dasatinib + Olaparib = compound: Cc1nc(Nc2ncc(C(=O)Nc3c(C)cccc3Cl)s2)cc(N2CCN(CCO)CC2)n1 [Dasatinib] + O=C(c1cc(Cc2n[nH]c(=O)c3ccccc23)ccc1F)N1CCN(C(=O)C2CC2)CC1 [Olaparib] (partner 8 µM)
How it was run: (§1)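 Values are medians from duplicate plates. Each reflects relative viability, defined as the nuclei count of treated wells over that of vehicle wells. Lung cancer cell lines in 1536-well plates were pin-tool dosed one day after seeding with one drug alone or with a fixed anchor-drug dose plus five library-drug doses (not always all listed) in √10 steps, then fixed, stained and imaged at 4× after 5 days.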

ALW-II-49-7 + Olaparib = compound: Cc1ccc(C(=O)Nc2cccc(C(F)(F)F)c2)cc1Nc1cncc(C(N)=O)c1 [ALW-II-49-7] + O=C(c1cc(Cc2n[nH]c(=O)c3ccccc23)ccc1F)N1CCN(C(=O)C2CC2)CC1 [Olaparib] (partner 8 µM)
How it was run: as §1

Dasatinib + Alpelisib = compound: Cc1nc(Nc2ncc(C(=O)Nc3c(C)cccc3Cl)s2)cc(N2CCN(CCO)CC2)n1 [Dasatinib] + Cc1nc(NC(=O)N2CCC[C@H]2C(N)=O)sc1-c1ccnc(C(C)(C)C(F)(F)F)c1 [Alpelisib] (partner 2 µM)
How it was run: as §1

ALW-II-49-7 + Decitabine = compound: Cc1ccc(C(=O)Nc2cccc(C(F)(F)F)c2)cc1Nc1cncc(C(N)=O)c1 [ALW-II-49-7] + Nc1ncn([C@H]2C[C@H](O)[C@@H](CO)O2)c(=O)n1 [Decitabine] (partner 2 µM)
How it was run: as §1

Cell Line | relative viability (Dasatinib + Olaparib; first compound 0.005 µM) | relative viability (Dasatinib + Olaparib; first compound 0.01581 µM) | relative viability (Dasatinib + Olaparib; first compound 0.05 µM) | relative viability (Dasatinib + Olaparib; first compound 0.1581 µM) | relative viability (Dasatinib + Olaparib; first compound 0.5 µM) | relative viability (ALW-II-49-7 + Olaparib; first compound 0.08 µM) | relative viability (ALW-II-49-7 + Olaparib; first compound 0.253 µM) | relative viability (ALW-II-49-7 + Olaparib; first compound 0.8 µM) | relative viability (ALW-II-49-7 + Olaparib; first compound 2.53 µM) | relative viability (ALW-II-49-7 + Olaparib; first compound 8 µM) | relative viability (Dasatinib + Alpelisib; first compound 0.005 µM) | relative viability (Dasatinib + Alpelisib; first compound 0.01581 µM) | relative viability (Dasatinib + Alpelisib; first compound 0.05 µM) | relative viability (Dasatinib + Alpelisib; first compound 0.1581 µM) | relative viability (Dasatinib + Alpelisib; first compound 0.5 µM) | relative viability (ALW-II-49-7 + Decitabine; first compound 0.08 µM) | relative viability (ALW-II-49-7 + Decitabine; first compound 0.253 µM) | relative viability (ALW-II-49-7 + Decitabine; first compound 0.8 µM) | relative viability (ALW-II-49-7 + Decitabine; first compound 2.53 µM) | relative viability (ALW-II-49-7 + Decitabine; first compound 8 µM)
PC-3 [JPC-3] | 1.22 | 1.14 | 1.16 | 1.08 | 0.609 | 0.693 | 1.2 | 1.24 | 1.05 | 1 | 1.08 | 1.09 | 1.12 | 0.966 | 0.477 | 0.785 | 0.95 | 0.771 | 0.814 | 0.873
HCC-44 | 1.03 | 0.958 | 1.11 | 1.13 | 0.986 | 0.928 | 1.04 | 0.995 | 0.957 | 0.935 | 0.789 | 0.705 | 0.676 | 0.271 | 0.183 | 0.971 | 0.974 | 0.945 | 0.996 | 0.913
NCI-H2405 | 0.749 | 0.531 | 0.458 | 0.282 | 0.231 | 0.856 | 0.97 | 0.86 | 0.811 | 0.785 | 0.621 | 0.334 | 0.366 | 0.23 | 0.162 | 0.699 | 0.751 | 0.75 | 0.685 | 0.722
LXF-289 | 1.07 | 1.02 | 0.925 | 0.268 | 0.158 | 1.02 | 0.909 | 1.09 | 1.26 | 1.09 | 1.05 | 1.05 | 0.666 | 0.154 | 0.109 | 0.391 | 0.372 | 0.411 | 0.407 | 0.443
LOU-NH91 | 0.925 | 0.807 | 0.726 | 0.615 | 0.372 | 0.846 | 0.946 | 0.923 | – | 0.805 | 0.69 | 0.584 | 0.572 | 0.441 | 0.34 | 0.785 | 0.824 | 0.844 | – | 0.861
A549 | 0.312 | 0.306 | 0.269 | 0.308 | 0.116 | 0.407 | 0.368 | 0.222 | 0.344 | 0.263 | 0.65 | 0.479 | 0.558 | 0.432 | 0.139 | 0.207 | 0.211 | 0.246 | 0.335 | 0.254
H3255 | 0.551 | 0.604 | 0.563 | 0.476 | 0.341 | 0.516 | 0.549 | 0.492 | 0.537 | 0.477 | 0.68 | 0.621 | 0.63 | 0.434 | 0.24 | 0.611 | 0.511 | 0.662 | 0.577 | 0.425
NCI-H1395 | 0.431 | 0.46 | 0.376 | 0.355 | 0.311 | 0.473 | 0.449 | 0.435 | – | 0.459 | 0.896 | 0.926 | 0.947 | 0.544 | 0.519 | 0.674 | 0.712 | 0.632 | – | 0.642
LC-2-ad | 0.752 | 0.666 | 0.746 | 0.573 | 0.516 | 0.736 | 0.793 | 0.682 | 0.721 | 0.343 | 0.854 | 0.703 | 0.699 | 0.276 | 0.169 | 0.84 | 0.845 | 0.861 | 0.8 | 0.863
NCI-H838 | 0.622 | 0.453 | 0.403 | 0.229 | 0.179 | 0.715 | 0.744 | 0.881 | 0.844 | 0.7 | 0.82 | 0.678 | 0.585 | 0.308 | 0.233 | 0.413 | 0.433 | 0.483 | 0.447 | 0.48
Calu-6 | 0.57 | 0.434 | 0.449 | 0.357 | 0.34 | 0.588 | 0.521 | 0.576 | 0.45 | 0.417 | 0.801 | 0.665 | 0.731 | 0.613 | 0.576 | – | – | – | – | –
NCI-H1648 | 0.73 | 0.612 | 0.855 | 0.314 | 0.221 | 1.52 | 0.684 | 0.656 | 0.48 | 0.808 | – | – | – | – | – | 0.545 | 0.48 | 0.531 | 0.454 | 0.509
LCLC-97TM1 | 0.468 | 0.449 | 0.557 | 0.393 | 0.4 | 0.429 | 0.442 | 0.399 | 0.279 | 0.353 | 0.266 | 0.246 | 0.24 | 0.254 | 0.143 | 0.256 | 0.201 | 0.252 | 0.236 | 0.207
HCC-15 | 0.763 | 0.764 | 0.851 | 0.733 | 0.689 | 0.757 | 0.689 | 0.719 | 0.577 | 0.648 | 0.875 | 0.783 | 0.779 | 0.53 | 0.528 | 0.596 | 0.654 | 0.626 | 0.624 | 0.644
CAL-12T | 0.689 | 0.688 | 0.877 | 0.755 | 0.575 | 0.797 | 0.644 | 0.773 | 0.753 | 0.719 | 1.15 | 1.03 | 1.62 | 1.13 | 0.355 | – | – | – | – | –
NCI-H727 | 0.74 | 0.603 | 0.654 | 0.618 | 0.288 | 0.663 | 0.843 | 0.603 | 0.501 | 0.597 | 0.453 | 0.375 | 0.397 | 0.219 | 0.234 | 0.775 | 0.884 | 0.738 | 0.824 | 0.703
ABC-1 | 0.867 | 0.767 | 0.786 | 0.621 | 0.841 | 0.636 | 0.828 | 0.744 | 0.838 | 0.921 | 0.978 | 0.776 | 0.888 | 0.714 | 0.571 | 1.02 | 1.11 | 1.01 | 1.35 | 0.947
